How the values were obtained:
[1] = log P determination by LC-MS in the acidic range; assay type: physicochemical; settings: LC-MS in the acidic range
From the text: The LC-MS determination in the acidic range is effected at pH 2.7 using 0.1% aqueous formic acid and acetonitrile (contains 0.1% formic acid) as eluents, linear gradient from 10% acetonitrile to 95% acetonitrile. Alternatively, the determination is effected in the acidic range at pH 2.3 using 0.1% aqueous phosphoric acid and acetonitrile as eluents; linear gradient from 10% acetonitrile to 95% acetonitrile.

Myzus persicae = Myzus persicae - sachet test; assay type: in vivo; settings: 100% = all animals killed
Procedure: Myzus persicae—Sachet Test Solvent: 2% by vol. of N-methylpyrrolidone • 2% by vol. of diacetone alcohol To produce an appropriate active ingredient formulation, the active ingredient is mixed with the specified amounts of solvent and the concentrate is diluted to the desired concentration with water. The active ingredient formulation is added to a specific nutrient medium in the desired concentration by pipetting. This plate is sealed and combined with a further plate populated with the green peach aphid (Myzus persicae). After the desired time, the kill in % is determined. 100% means that all the animals have been killed; 0% means that no animals have been killed.

[2] = application rate of 6 ppm in nutrient medium
[3] = application rate of 30 ppm in nutrient medium

Row | log P (acid) [1] | SMILES | efficacy (kill in %) (Myzus persicae; [2]) | efficacy (kill in %) (Myzus persicae; [3])
1 | 1.99 | Cc1cc(NC(=O)c2cccnc2)nn1CC1COc2ccccc2O1 (stereo not drawn) [Compound I-1-157] | – | 100%
2 | 1.7 | CSCCCNC(=O)n1nc(NC(=O)c2cccnc2)cc1C [Compound I-1-165] | 100% | 100%
3 | 2.18 | Cc1cc(NC(=O)c2cccnc2)nn1C(=O)NCCOc1ccccc1 [Compound I-1-168] | 100% | 100%
4 | 2.21 | Cc1cc(NC(=O)c2cccnc2)nn1C(=O)NCCOc1c(F)cccc1F [Compound I-1-171] | 80% | 100%
5 | 1.86 | Cc1cc(NC(=O)c2cccnc2)nn1-c1ccccc1Cl [Compound I-1-213] | – | 100%
6 | 1.92 | Cc1cc(NC(=O)c2cccnc2)nn1CC(=O)Cc1ccccc1Cl [Compound I-1-247] | 100% | 100%
7 | 2.13 | Cc1cc(NC(=O)c2cccnc2)nn1C(=O)N(C)S(=O)(=O)c1ccccc1 [Compound I-1-263] | 100% | 100%
8 | 2.1 | O=C(Nc1cc(Cl)n(-c2ccccc2)n1)c1cccnc1 [Compound I-1-274] | – | 100%
9 | 1.24 | CCNC(=O)n1nc(NC(=O)c2cccnc2)cc1C [Compound I-1-288] | 100% | 100%
10 | 2.31 | CCN(CC)C(=O)n1nc(NC(=O)c2cccnc2)cc1C [Compound I-1-290] | 100% | 100%
11 | 1.57 | Cc1cc(NC(=O)c2cccnc2)nn1Cc1nnc(-c2ccccc2)o1 [Compound I-1-299] | 100% | 100%
12 | 2.01 | Cc1cc(NC(=O)c2cccnc2)nn1Cc1nc(-c2ccccc2)no1 [Compound I-1-300] | 100% | 100%
13 | 1.89 | Cc1cc(NC(=O)c2cccnc2)nn1C(=O)NC(C)C(F)(F)F (stereo not drawn) [Compound I-1-307] | 100% | 100%
14 | 0.97 | Cc1cc(NC(=O)c2cccnc2)nn1C(=O)NCCS(C)(=O)=O [Compound I-1-309] | 100% | 100%
15 | 1.92 | CCCCNC(=O)n1nc(NC(=O)c2cccnc2)cc1C [Compound I-1-315] | 100% | 100%
16 | 1.65 | Cc1cc(NC(=O)c2cccnc2)nn1C(=O)NCC1CC1 [Compound I-1-316] | 100% | 100%
17 | 1.99 | Cc1cc(NC(=O)c2cccnc2)nn1C(=O)NC(C)(C)C [Compound I-1-319] | 100% | 100%
18 | 1.97 | Cc1cc(NC(=O)c2cccnc2)nn1C(=O)NCc1ccccc1 [Compound I-1-322] | 100% | 100%

Further lines, the molecule ahead of its results:

Row | SMILES | log P (acid) [1] | efficacy (kill in %) (Myzus persicae; [2]) | efficacy (kill in %) (Myzus persicae; [3])
19 | Cc1cc(NC(=O)c2cccnc2)nn1Cn1nc(C)n(C2CC2)c1=O [Compound I-1-146] | 1.05 | 100% | 100%
20 | Cc1cc(NC(=O)c2cccnc2)nn1Cc1ccc2c(c1)CCCC2 [Compound I-1-158] | 2.73 | – | 100%
21 | Cc1cc(NC(=O)c2cccnc2)nn1Cc1cn2cc(F)ccc2n1 [Compound I-1-159] | 0.66 | 100% | 100%
22 | Cc1cc(NC(=O)c2cccnc2)nn1Cc1cn2cc(Cl)ccc2n1 [Compound I-1-160] | 1.03 | 100% | 100%
23 | Cc1cc(NC(=O)c2cccnc2)nn1C(=O)N1CCCC1 [Compound I-1-161] | 1.29 | 80% | 100%
24 | Cc1cc(NC(=O)c2cccnc2)nn1S(=O)(=O)N1CCC(C)CC1 [Compound I-1-162] | 2.51 | 100% | 100%
25 | Cc1cc(N(C)C(=O)c2cccnc2)nn1CC1CC1 [Compound I-1-177] | 1.27 | – | 100%
26 | Cc1c(C#N)c(NC(=O)c2cccnc2)nn1Cc1ncccn1 [Compound I-1-194] | 0.63 | – | 100%
27 | Cc1cc(NC(=O)c2cccnc2)nn1Cc1ncc(Cl)cn1 [Compound I-1-195] | 1.23 | 100% | 100%
28 | O=C(Nc1cc(Cl)n(Cc2ncccn2)n1)c1cccnc1 [Compound I-1-197] | 1.04 | 100% | 100%
29 | Cc1cn(CC#N)nc1NC(=O)c1cccnc1 [Compound I-1-199] | 0.37 | – | 100%
30 | Cc1cc(NC(=O)c2cccnc2)nn1-c1ccc(Cl)cc1Cl [Compound I-1-207] | 2.36 | 100% | 100%
31 | Cc1cc(C)cc(-n2nc(NC(=O)c3cccnc3)cc2C)c1 [Compound I-1-208] | 2.4 | – | 100%
32 | Cc1cc(NC(=O)c2cccnc2)nn1-c1ccc(Cl)cc1 [Compound I-1-209] | 2.09 | 80% | 100%
33 | Cc1cc(NC(=O)c2cccnc2)nn1-c1cccc(C#N)c1 [Compound I-1-217] | 1.59 | 100% | 100%
34 | Cc1cc(NC(=O)c2cccnc2)nn1C(C)(C)C#N [Compound I-1-219] | 1.31 | 100% | 100%
35 | Cc1cc(NC(=Nc2ccc(Cl)cc2Cl)c2cccnc2)nn1C [Compound I-1-232] | 1.77 | – | 100%
36 | Cc1cc(NC(=O)c2cccnc2)nn1C[S+]([O-])c1ncccn1 (stereo not drawn) [Compound I-1-235] | 0.5 | 80% | 100%

Row | SMILES | log P (acid) [1] | efficacy (kill in %) (Myzus persicae; [2]) | efficacy (kill in %) (Myzus persicae; [3])
37 | Cc1cc(NC(=O)c2cccnc2)nn1CS(=O)(=O)c1ncccn1 [Compound I-1-236] | 0.74 | 100% | 100%
38 | Cc1cc(NC(=O)c2cccnc2)nn1CC=C(Cl)Cl [Compound I-1-238] | 1.83 | 100% | 100%
39 | CSCn1nc(NC(=O)c2cccnc2)cc1C [Compound I-1-241] | 1.17 | 100% | 100%
40 | Cc1cc(NC(=O)c2ccnnc2)nn1-c1ccccn1 [Compound I-1-249] | 1.83 | – | 100%
41 | CNS(=O)(=O)n1nc(NC(=O)c2cccnc2)cc1C [Compound I-1-257] | 0.55 | – | 100%
42 | Cc1cc(N(CC(F)F)C(=O)c2cccnc2)nn1Cc1ncccn1 [Compound I-1-265] | 1.19 | 100% | 100%
43 | O=C(Nc1nn(Cc2ncccn2)cc1F)c1cccnc1 [Compound I-1-267] | 0.42 | – | 100%
44 | N#Cc1cc(NC(=O)c2cccnc2)nn1Cc1ncccn1 [Compound I-1-269] | 1.0 | 100% | 100%
45 | CSc1c(C#N)c(NC(=O)c2cccnc2)nn1C [Compound I-1-270] | 0.96 | – | 80%
46 | Cc1cc(NC(=O)c2cncc(Cl)c2)nn1Cc1ncccn1 [Compound I-1-276] | 1.4 | 100% | 100%
47 | CCS(=O)(=O)n1nc(NC(=O)c2cccnc2)cc1C [Compound I-1-278] | 1.29 | – | 100%
48 | Cc1cc(NC(=O)c2cccnc2)nn1S(=O)(=O)c1cccnc1 [Compound I-1-280] | 1.45 | 80% | 100%
49 | Cc1noc(Cn2nc(NC(=O)c3cccnc3)cc2C)n1 [Compound I-1-284] | 0.92 | 100% | 100%
50 | Cc1cc(NC(=O)c2cccnc2)nn1CC(F)(F)c1ccc(F)cn1 [Compound I-1-294] | 1.77 | – | 100%
51 | Cc1cc(NC(=O)c2cccnc2)nn1Cc1ccc(Cl)c(Cl)n1 [Compound I-1-301] | 2.06 | – | 100%
52 | Cc1cc(NC(=O)c2cccnc2)nn1Cc1csc(C(F)(F)F)n1 [Compound I-1-302] | 1.93 | 100% | 100%
53 | Cc1cc(N(Cc2nc(-c3ccccc3)no2)C(=O)c2cccnc2)nn1Cc1nc(-c2ccccc2)no1 [Compound I-1-305] | 3.26 | – | 100%
54 | Cc1cc(NC(=O)c2cccnc2)nn1C=C(F)c1ccc(Cl)cn1 [Compound I-1-306] | 2.31 | – | 100%

Source: US20160106102A1, “KNOWN AND NEW HETEROCYCLIC COMPOUNDS AS PEST CONTROL AGENTS” (BAYER CROPSCIENCE AKTIENGESELLSCHAFT, priority 2013, published 2016)
